# In patent publication US11572394B2, “Peptides for targeting LRP6-overexpressed cells” (PASTEUR INSTITUTE OF IRAN, priority 2020, dated 2023):
# Where a SMILES comes first, the peptide text is derived from it. Bridges are numbered along the chain shown (N, C = ends). Where no end group is shown, it is not given here.
# B1: Wnt5a: Wnt5a, effective ligand for non-canonical Wnt signaling pathway, positive control (protein, UniProt P41221 62-380, looked up)
# Protein Wnt-5a: IIGAQPLCSQLAGLSQGQKKLCHLYQDHMQYIGEGAKTGIKECQYQFRHRRWNCSTVDNTSVFGRVMQIGSRETAFTYAVSAAGVVNAMSRACREGELSTCGCSRAARPKDLPRDWLWGGCGDNIDYGYRFAKEFVDARERERIHAKGSYESARILMNLHNNEAGRRTVYNLADVACKCHGVSGSCSLKTCWLQLADFRKVGDALKEKYDSAAAMRLNSRGKLVQVNSRFNSPTTQDLVYIDPSPDYCVRNESTGSLGTQGRLCNKTSEGMDGCELMCCGRGYDQFKTVQTERCHCKFHWCCYVKCKKCTEIVDQFVCK
# B2: Wnt3a: Wnt3a protein, positive control of the Wnt signaling pathway (protein, UniProt P56704 19-352, looked up)
# Protein Wnt-3a: SYPIWWSLAVGPQYSSLGSQPILCASIPGLVPKQLRFCRNYVEIMPSVAEGIKIGIQECQHQFRGRRWNCTTVHDSLAIFGPVLDKATRESAFVHAIASAGVAFAVTRSCAEGTAAICGCSSRHQGSPGKGWKWGGCSEDIEFGGMVSREFADARENRPDARSAMNRHNNEAGRQAIASHMHLKCKCHGLSGSCEVKTCWWSQPDFRAIGDFLKDKYDSASEMVVEKHRESRGWVETLRPRYTYFKVPTERDLVYYEASPNFCEPNPETGSFGTRDRTCNVSSHGIDGCDLLCCGRGHNARAERRREKCRCVFHWCCYVSCQECTRVYDVHTCK
# Key:
# Type in all cases: cell-based, human
# SW480 [1] = experiment: Annexin V/PI flow cytometry apoptosis assay; conditions: 24 hours, p<0.05; for cell death of SW480 compared with HCT116 cell line: 1 mM; for cell death compared with HUVEC cell line: SW480, 1 mM
# Experimental: (§1) In this example, the apoptotic effect of exemplary peptides on cancer cells was examined by analyzing the number of apoptotic cells in HCT116 and SW480 and HUVEC cell lines before and after treatment with 1 mM of each exemplary peptide for 24 hours. Annexin V and propidium iodide (PI) staining were used to evaluate the apoptosis induced by treatment with exemplary peptides in each cell line. Stained cells may be counted by flow cytometry to calculate the percentage of apoptosis (Annexin V positive and PI negative) and necrosis percentage (Annexin V positive and […]) for each cell line.
# (§2) The percentage of Annexin V positive and PI negative cells were considered early apoptosis, and the percentage of both Annexin positive and PI-positive cells was considered late apoptosis and necrosis. The sum of these two groups of cells was considered as the cell death rate.
# [2] = tested on: Wnt signaling pathway, HCT116 cell line; experiment: Real-time PCR of LRP6 and downstream genes of the Wnt signaling pathway; conditions: treated against untreated
# Experimental: (§3) In this example, the effect of exemplary peptides on the expression of LRP6 and downstream genes of the Wnt signaling pathway, such as β-catenin, cyclin D1, and C-MYC, was evaluated at transcription level using real-time PCR and at translation level using Western blotting. The Gapdh gene was used as the reference gene. The expression fold change of more than 2 times (treated cell against untreated cell) was defined as increasing expression, and cases with a fold change of 0.5 to 2 were unchanged, and cases with expression fold change less than 0.5 were considered as a reduction in expression.
# [3] = tested on: Wnt signaling pathway, HUVEC cell line; experiment: as above; conditions: treated against untreated
# Experimental: as §3
# [4] = tested on: Wnt signaling pathway, SW480 cell line; experiment: as above; conditions: treated against untreated
# Experimental: as §3
# [5] = tested on: Wnt signaling pathway, HCT116 cell line; experiment: Western blotting of LRP6 and β-catenin proteins with signal densitometry; conditions: HCT116, Western blot signal densitometry
# Experimental: as §3
# (§4) Also, the effect of exemplary peptides on the levels of LRP6 and β-catenin proteins in the β-catenin/Wnt signaling pathway was investigated by Western blotting. Also, each protein's relative expression was determined through signal densitometry of each Western blot band.
# [6] = tested on: Wnt signaling pathway, SW480 cell line; experiment: as above; conditions: SW480, Western blot signal densitometry
# Experimental: as §3, §4
# HCT116 [7] = experiment: Annexin V/PI flow cytometry apoptosis assay; conditions: 24 hours, p<0.05; for cell death compared with HUVEC cell line: HCT116, 1 mM
# Experimental: as §1, §2
# [8] = tested on: Wnt signaling pathway, HUVEC cell line; experiment: Western blotting of LRP6 and β-catenin proteins with signal densitometry; conditions: Western blot signal densitometry
# Experimental: as §3
# Also, the effect of exemplary peptides on the levels of LRP6 and β-catenin proteins in the β-catenin/Wnt signaling pathway was investigated by Western blotting. Also, each protein's relative expression was determined through signal densitometry of each Western blot band. FIG. 11A illustrates relative expression β-actin, β-catenin, and LRP6 in SW480, HCT116, and HUVEC cell lines, consistent with one or more exemplary embodiments of the present disclosure. Referring to FIG. 11A, the relative expressions of β-catenin and LRP6 in SW480 and HCT116 were higher than HUVEC as a normal cell.
# HCT116 [9] = experiment: Cell cycle analysis by flow cytometry (DNA content); conditions: HCT116, 24 hours
# Experimental: (§5) In this example, the effect of exemplary peptides on the cell cycle was determined through flow cytometry and measurement of DNA content in cells. In this experiment, HCT116, SW480, and HUVEC cell lines were cultured in 24-well plates and treated with 1 mM of each exemplary peptide for 24 hours.
# (§6) The cell proliferation index may be calculated by dividing the percentage of cells present in the S and G2 stages by the percentage of cells in the G1, S, and G2 stages. […] Also, the proliferation index in SW480 and HCT116 cell lines decreased after treatment with exemplary peptides (SEQ ID NOs: 1-4). On the other hand, the decrease in the proliferation index of HUVEC cells was smaller than that of SW480 and HCT116 cell lines.
# HUVEC = experiment: as above; conditions: 24 hours
# Experimental: as §5, §6
# SW480 [10] = experiment: as above; conditions: SW480, 24 hours
# Experimental: as §5, §6
Molecule,cell death of SW480 compared with HCT116 cell line (SW480 [1]),cell death compared with HUVEC cell line (SW480 [1]),expression of C-MYC gene [2],expression of LRP6 gene [2],expression of cyclin D1 gene [2],expression of β-catenin gene [2],expression of C-MYC gene [3],expression of LRP6 gene [3],expression of cyclin D1 gene [3],expression of β-catenin gene [3],expression of C-MYC gene [4],expression of LRP6 gene [4],expression of cyclin D1 gene [4],expression of β-catenin gene [4],decrease of β-catenin protein level [5],decrease of β-catenin protein level [6],cell death compared with HUVEC cell line (HCT116 [7]),effect on β-catenin protein content [8],also measured
CC[C@H](C)[C@@H]1NC(=O)[C@H](CCCCN)NC(=O)[C@H](CO)NC(=O)[C@H](Cc2c[nH]c3ccccc23)NC(=O)[C@H](Cc2ccccc2)NC(=O)[C@H](Cc2c[nH]cn2)NC(=O)[C@H](CCCNC(=N)N)NC(=O)[C@H](C)NC(=O)[C@H](CS)NC(=O)[C@@H](N)CSSC[C@@H](C(=O)O)NC1=O [Pep-4] (H-CCARHFWSKIC-OH; disulfide 1-11),significantly higher,significantly higher,reduced,did not change,reduced,reduced,have not changed,have not changed,have not changed,have not changed,reduced,did not change,reduced,reduced,20%,20%,,,
NSSSLSSGSGNNANGNFLTYY [Pep-1],significantly higher,significantly higher,did not change,did not change,did not change,did not change,did not change,did not change,did not change,did not change,did not change,did not change,did not change,did not change,no significant effect,no significant effect,significantly higher,no significant effect,
NGYITFQDGNDYFRFPLNN [Pep-3],,,did not change,did not change,did not change,did not change,did not change,did not change,did not change,did not change,did not change,did not change,did not change,did not change,no significant effect,no significant effect,,no significant effect,
CC[C@H](C)[C@H](NC(=O)[C@H](CCC(=O)O)NC(=O)[C@H](CC(C)C)NC(=O)CNC(=O)[C@H](Cc1c[nH]cn1)NC(=O)[C@H](CO)NC(=O)CNC(=O)[C@H](CCCCN)NC(=O)[C@H](CCCNC(=N)N)NC(=O)[C@H](CCCNC(=N)N)NC(=O)[C@H](Cc1c[nH]cn1)NC(=O)[C@H](CCCCN)NC(=O)[C@@H](NC(=O)[C@H](CS)NC(=O)[C@@H](NC(=O)[C@@H](N)CCC(N)=O)C(C)C)[C@@H](C)O)C(=O)N[C@@H](Cc1ccccc1)C(=O)N[C@@H](CCC(N)=O)C(=O)N[C@@H](CCCNC(=N)N)C(=O)N[C@@H](CS)C(=O)N[C@@H](Cc1ccc(O)cc1)C(=O)O [Pep-2] (H-QVCTKHRRKGSHGLEIFQRCY-OH; N-terminus and C-terminus assumed),,significantly higher,reduced,did not change,reduced,reduced,did not change,did not change,did not change,did not change,reduced,did not change,reduced,reduced,20%,20%,significantly higher,,cell death rate of HCT116 compared with SW480 (HCT116 [7]; 1 mM): significantly higher
B1,,,did not change,did not change,did not change,did not change,did not change,did not change,did not change,did not change,did not change,did not change,did not change,did not change,,,,,
B2,,,increasing,increasing,increasing,increasing,did not change,did not change,did not change,did not change,increasing,increasing,increasing,increasing,,,,,S and G2/M stage percentage (HCT116 [9]): higher percentage; S and G2/M stage percentage (HUVEC): higher percentage; S and G2/M stage percentage (SW480 [10]): higher percentage
